Consider two compounds from patent publication US20080058381A1, “COMBINATION OF A CB1 RECEPTOR ANTAGONIST AND OF SIBUTRAMINE, THE PHARMACEUTICAL COMPOSITIONS COMPRISING THEM AND THEIR USE IN THE TREATMENT OF OBESITY” (priority 2000, published 2008).

The subject of the assay is Obese Fa/fa Zucker rats. Briefly: Effect on food intake (food consumption) in obese Zucker rats, five days of oral treatment. Format: in vivo, rat. Conditions: daily for 5 days. The procedure:
The synergistic effect of the combination of sibutramine and of a CB1 receptor antagonist on food intake was determined according to the following protocol:
Obese Fa/fa Zucker rats aged 7 weeks and originating from Iffa-Credo, France, were used in this study. The rats are housed in individual cages and weighed every day between 8 and 10 o'clock in the morning. The amount of food is also weighed each morning at the same time. This food (M20, Pietrement, France) is changed every day and the rats have free access thereto for 24 hours. All the rats are treated for a week with the vehicle (miglyol 812N and 0.5% methylcellulose/0.2% polysorbate 80) in two consecutive administrations. The rats are treated from the 8th day with the vehicle, the CB1 receptor antagonist (1-[bis(4-chlorophenyl)methyl]-3-[(3,5-difluorophenyl)-(methylsulfonyl)methylene]azetidine) or sibutramine by the oral route (see table below).
The sibutramine is dissolved in a 0.5% methylcellulose/0.2% polysorbate 80 solution and administered at a dose of 3 mg/kg; the CB1 receptor antagonist is dissolved in miglyol 812N (Hüls, Germany) at a dose of 0.6 mg/kg and the two products are administered under a volume of 1 ml/kg. Each group is composed of 12 to 14 animals. […]
The food consumption of each animal is measured every day. The results are expressed as mean amount of food consumed during the 5 days of treatment.

In the case of `CC(C)CC(N(C)C)C1(c2ccc(Cl)cc2)CCC1` (centres unmarked) [sibutramine, N-{1-[1-(4-chloro-phenyl)cyclobutyl]-3-methylbutyl}-N,N-dimethylamine], the “Food consumption during the 5 days of treatment” value (sibutramine 3 mg/kg oral (after miglyol), mean amount of food consumed, vehicles 25.52 ± 0.30, p < 0.05) is reported as 24.60 ± 0.32 g.

As to `CS(=O)(=O)C(=C1CN(C(c2ccc(Cl)cc2)c2ccc(Cl)cc2)C1)c1cc(F)cc(F)c1` [CB1 receptor antagonist, 1-[bis(4-chlorophenyl)methyl]-3-[(3,5-difluorophenyl)-(methylsulfonyl)methylene]azetidine], the “Food consumption during the 5 days of treatment” value (CB1 receptor antagonist 0.6 mg/kg oral in miglyol (then methylcellulose/polysorbate vehicle), vehicles 25.52 ± 0.30, p < 0.01) turned out to be 24.00 ± 0.24 g.
